What is called GI50 is the concentration that inhibits growth by half. A lower GI50 goes with greater sensitivity of the cells. As usually defined, the IC50 is the concentration needed to halve the response being measured.

Each structure is given as a SMILES string. Bridge positions count the residues as written; N and C are the ends. Square brackets hold non-standard residues; d marks the D form. Peptide text beside a SMILES is read from it. 2Nal = N[C@@H](Cc1ccc2ccccc2c1)C(=O)O; Cit = NC(=O)NCCC[C@H](N)C(=O)O; NMeK = CN[C@@H](CCCCN)C(=O)O; Orn = NCCC[C@H](N)C(=O)O

Data set [1] deals with human red blood cells (hRBC). As to the kind of experiment: Hemolysis. It is filed as cell-based. Here is the method:
The peptides were tested for their hemolytic activity against human red blood cells (hRBC). Fresh hRBC were washed three times with phosphate buffered saline (PBS) by centrifugation for 10 min at 2000×g. Peptides at a concentration of 100 μM were incubated with 20% v/v hRBC for 1 hour at 37° C. The final erythrocyte concentration was approximately 0.9×10^9 cells per ml. A value of 0% resp. 100% cell lysis was determined by incubation of the hRBC in the presence of PBS alone and respectively 0.1% Triton X-100 in H2O. The samples were centrifuged and the supernatant was 20-fold diluted in PBS buffer and the optical density (OD) of the sample at […] was measured. The 100% lyses value (OD540H2O) gave an OD540 of approximately 1.3-1.8. Percent hemolysis was calculated as follows: (OD540peptide/OD540H2O)×100%.

The nature of data set [2]: in vitro. The note with it: human.
Method: Each peptide concentration was assayed in triplicate. […] Wells were then washed once with PBS and subsequently 100 μl MTT reagent (0.5 mg/mL in medium RPMI1640 and, respectively, DMEM) was added to the wells. This was incubated at 37° C. for 2 hours and subsequently the medium was aspirated and 100 μl isopropanol was added to each well. […] For each concentration averages were calculated from triplicates. The percentage of growth was calculated as follows: (OD595peptide-OD595Tz-OD595Empty well)/(OD595Tz-OD595Empty well)×100% and was plotted for each peptide concentration.
‘CCR5’ cells were cultured in DMEM medium with 4500 mg/ml glucose, 10% fetal bovine serum (FBS), supplemented with 50 U/ml Penicillin and 50 μg/ml Streptomycin (Pen/Strept.). Hut/4-3 cells were maintained in RPMI medium, 10% FBS, supplemented with Pen/Strept. and 10 mM HEPES. HELA cells and CCRF-CEM cells were maintained in RPMI1640 plus 5% FBS, Pen/Strept and 2 mM L-Glutamine. Cos-7 cells were grown in DMEM medium with 4500 mg/ml glucose supplemented with 10% FCS, Pen/Strept. and 2 mM L-Glutamine. All cell lines were grown at 37° C. at 5% CO2.
The target of data set [3] is CXCR4 (Homo sapiens, UniProt P61073). In words: Ca2+-assay method 2 (Flexstation, SDF-1 induced calcium mobilization). It is filed as cell-based. More on the design: expressed in transfected cells; host or cells: mouse pre-B cell line 300-19. The settings on record: method 2 (Ex. 54-160), mouse pre-B cell line 300-19 with human CXCR4, 10 nM SDF-1; read-out: IC50 (nM) Ca^2+ assay. Here is the method: 2.2. Ca^2+-Assay: CXCR4-Antagonizing Activity of the Peptides.
The cells were batch loaded with the Calcium 3 Assay kit (Molecular Devices) in assay buffer (Hanks Balanced salt solution, HBSS, 20 mM HEPES, pH 7.4, 0.1% BSA) for 1 h at room temperature and then 200,000 labeled cells were dispensed into black 96 well assays plates (Costar No. 3603). A 20-fold concentrated solution of peptide in assay buffer was added to the cells and the whole plate was centrifuged to settle the cells to the bottom of the wells. Calcium mobilization induced by 10 nM stromal-derived factor-1 (SDF-1) was measured in the Flexstation 384 (excitation, 485 nM; emission, 525 nM) for 90 seconds. A maximal change in fluorescence response above baseline was used to calculate antagonist activity. The data for dose response curves (antagonist concentration versus % maximum response) were fitted to a four parameter logistic equation using SoftmaxPro 4.6 (Molecular Devices), from which IC50% values were calculated.
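For GI50 in this document: MTT reduction read as absorbance at 595 nm, blank-corrected and expressed as percent growth relative to the time-zero cell reading, triplicate wells per concentration.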

Sequence of CXCR4 (P61073 whole entry): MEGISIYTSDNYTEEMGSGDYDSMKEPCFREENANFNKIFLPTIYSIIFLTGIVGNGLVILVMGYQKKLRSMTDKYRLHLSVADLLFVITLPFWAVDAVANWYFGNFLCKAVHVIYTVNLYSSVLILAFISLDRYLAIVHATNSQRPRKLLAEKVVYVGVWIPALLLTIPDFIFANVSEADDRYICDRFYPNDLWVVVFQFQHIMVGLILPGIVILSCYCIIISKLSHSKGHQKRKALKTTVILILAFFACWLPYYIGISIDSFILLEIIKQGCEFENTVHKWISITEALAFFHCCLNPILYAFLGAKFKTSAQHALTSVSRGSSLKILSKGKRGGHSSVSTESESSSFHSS

`N=C(N)NCCC[C@@H]1NC(=O)[C@@H]2CSSC[C@H](NC(=O)[C@H](Cc3ccc4ccccc4c3)NC(=O)[C@H](CCCNC(=N)N)NC(=O)[C@H](CCCNC(=N)N)NC(=O)[C@H]3CCCN3C(=O)CNC1=O)C(=O)N[C@@H](Cc1ccc(O)cc1)C(=O)N[C@@H](Cc1c[nH]cn1)C(=O)N[C@@H](CCCCN)C(=O)N1CCC[C@@H]1C(=O)N1CCC[C@H]1C(=O)N[C@@H](Cc1ccc(O)cc1)C(=O)N[C@@H](CCCNC(=N)N)C(=O)N[C@@H](CCCNC(N)=O)C(=O)N2` [Ex. 58] (cyclo(YR[Cit]CRG[dP]RR[2Nal]CYHK[dP]P); disulfide 4-11) gave a Hemolysis at 100 μM in data set [1] of 0%. Besides, the GI50 at 48 h in data set [2] turned out to be 18 µM. Moreover, the IC50 in data set [3] was 10.5 nM.
The matching figures for `N=C(N)NCCC[C@@H]1NC(=O)[C@@H]2CSSC[C@H](NC(=O)[C@H](Cc3c[nH]c4ccccc34)NC(=O)[C@H](CCCN)NC(=O)[C@H](CCCNC(=N)N)NC(=O)[C@H]3CCCN3C(=O)CNC1=O)C(=O)N[C@@H](Cc1ccc(O)cc1)C(=O)N[C@@H](CCCNC(N)=O)C(=O)N[C@@H](CCCCN)C(=O)N1CCC[C@@H]1C(=O)N1CCC[C@H]1C(=O)N[C@@H](Cc1ccc(O)cc1)C(=O)N[C@@H](CCCNC(=N)N)C(=O)N[C@@H](CCCNC(N)=O)C(=O)N2` [Ex. 117] (cyclo(YR[Cit]CRG[dP]R[Orn]WCY[Cit]K[dP]P); disulfide 4-11): 0%, 44 µM and 3.4 nM.
In data set [1], `CN1C(=O)[C@H](CCCNC(N)=O)NC(=O)[C@H](Cc2ccc(O)cc2)NC(=O)[C@@H]2CSSC[C@H](NC(=O)[C@H](CCCNC(N)=O)NC(=O)[C@H](CCCNC(=N)N)NC(=O)[C@H](Cc3ccc(O)cc3)NC(=O)[C@@H]3CCCN3C(=O)[C@H]3CCCN3C(=O)[C@@H]1CCCCN)C(=O)N[C@@H](CCCNC(=N)N)C(=O)NCC(=O)N1CCC[C@@H]1C(=O)N[C@@H](CCCNC(=N)N)C(=O)N[C@@H](CCCNC(=N)N)C(=O)N[C@@H](Cc1ccc3ccccc3c1)C(=O)N2` [Ex. 127] (cyclo(YR[Cit]CRG[dP]RR[2Nal]CY[Cit][NMeK][dP]P); disulfide 4-11) showed a Hemolysis at 100 μM of 0%. Growth in data set [2] was halved (GI50 at 48 h) at 62 µM. In addition, the IC50 in data set [3] amounted to 52.2 nM.
With `CC(C)[C@@H]1NC(=O)[C@H](CCCNC(=N)N)NC(=O)[C@H](Cc2ccc(O)cc2)NC(=O)[C@@H]2CCCN2C(=O)[C@H]2CCCN2C(=O)[C@H](CCCCN)NC(=O)[C@H](CCC(N)=O)NC(=O)[C@H](Cc2ccc(O)cc2)NC(=O)[C@@H]2CSSC[C@H](NC1=O)C(=O)N[C@@H](CCCNC(=N)N)C(=O)NCC(=O)N1CCC[C@@H]1C(=O)N[C@@H](CCCNC(=N)N)C(=O)N[C@@H](CCCNC(=N)N)C(=O)N[C@@H](Cc1ccc3ccccc3c1)C(=O)N2` [Ex. 98] (cyclo(YRVCRG[dP]RR[2Nal]CYQK[dP]P); disulfide 4-11), the Hemolysis at 100 μM in data set [1] stood at 1%. Besides, it took 41 µM to inhibit growth in data set [2] by half (GI50 at 48 h). The half-maximal inhibitory concentration (IC50) in data set [3] is 3.9 nM.
On the same counts, the results for `N=C(N)NCCC[C@@H]1NC(=O)[C@@H]2CSSC[C@H](NC(=O)[C@H](Cc3ccc4ccccc4c3)NC(=O)[C@H](CCCNC(=N)N)NC(=O)[C@H](CCCNC(=N)N)NC(=O)[C@H]3CCCN3C(=O)CNC1=O)C(=O)N[C@@H](Cc1ccc(O)cc1)C(=O)N[C@@H](CCC(N)=O)C(=O)N[C@@H](CCCCN)C(=O)N1CCC[C@@H]1C(=O)N1CCC[C@H]1C(=O)N[C@@H](Cc1ccc(O)cc1)C(=O)N[C@@H](CCCNC(=N)N)C(=O)N[C@@H](CCCCN)C(=O)N2` [Ex. 94] (cyclo(YRKCRG[dP]RR[2Nal]CYQK[dP]P); disulfide 4-11) are 0.2%, 45 µM and 2.5 nM.
Regarding `N=C(N)NCCC[C@@H]1NC(=O)[C@@H]2CSSC[C@H](NC(=O)[C@H](Cc3ccc4ccccc4c3)NC(=O)[C@H](CCCNC(=N)N)NC(=O)[C@H](CCCNC(=N)N)NC(=O)[C@H]3CCCN3C(=O)CNC1=O)C(=O)N[C@@H](Cc1ccc(O)cc1)C(=O)N[C@@H](CCC(N)=O)C(=O)N[C@@H](CCCCN)C(=O)N1CCC[C@@H]1C(=O)N1CCC[C@H]1C(=O)N[C@@H](Cc1ccc(O)cc1)C(=O)N[C@@H](CCCNC(=N)N)C(=O)N[C@@H](CCCNC(N)=O)C(=O)N2` [Ex. 115] (cyclo(RR[2Nal]CYQK[dP]PYR[Cit]CRG[dP]); disulfide 4-13), the Hemolysis at 100 μM in data set [1] was determined as 0.1%. In addition, in data set [3], the IC50 is 2.7 nM.
Molecule `N=C(N)NCCC[C@@H]1NC(=O)[C@@H]2CSSC[C@H](NC(=O)[C@H](Cc3ccc4ccccc4c3)NC(=O)[C@H](CCCNC(=N)N)NC(=O)[C@H](CCCNC(=N)N)NC(=O)[C@H]3CCCN3C(=O)CNC1=O)C(=O)N[C@@H](Cc1ccc(O)cc1)C(=O)N[C@@H](CCC(N)=O)C(=O)N[C@@H](CO)C(=O)N1CCC[C@@H]1C(=O)N1CCC[C@H]1C(=O)N[C@@H](Cc1ccc(O)cc1)C(=O)N[C@@H](CCCNC(=N)N)C(=O)N[C@@H](CCCNC(N)=O)C(=O)N2` [Ex. 87] (cyclo(YR[Cit]CRG[dP]RR[2Nal]CYQS[dP]P); disulfide 4-11) yielded a Hemolysis at 100 μM in data set [1] of 0%. Besides, halving of growth in data set [2] (GI50 at 48 h) required 64 µM. Besides, the IC50 in data set [3] was 3.5 nM.
On the same counts, the results for `N=C(N)NCCC[C@@H]1NC(=O)[C@@H]2CSSC[C@H](NC(=O)[C@H](Cc3ccc(O)cc3)NC(=O)[C@H](CCCNC(=N)N)NC(=O)[C@H](CCCNC(=N)N)NC(=O)[C@H]3CCCN3C(=O)CNC1=O)C(=O)N[C@@H](Cc1ccc(O)cc1)C(=O)N[C@@H](CCCNC(N)=O)C(=O)N[C@@H](CCCCN)C(=O)N1CCC[C@@H]1C(=O)N1CCC[C@H]1C(=O)N[C@@H](Cc1ccc(O)cc1)C(=O)N[C@@H](CCCNC(=N)N)C(=O)N[C@@H](CCCNC(N)=O)C(=O)N2` [Ex. 112] (cyclo(YR[Cit]CRG[dP]RRYCY[Cit]K[dP]P); disulfide 4-11) are 0%, 76 µM and 7.8 nM.
Regarding `N=C(N)NCCC[C@@H]1NC(=O)[C@@H]2CSSC[C@H](NC(=O)[C@H](Cc3ccc4ccccc4c3)NC(=O)[C@H](CCCNC(=N)N)NC(=O)[C@H](CCCNC(=N)N)NC(=O)[C@H]3CCCN3C(=O)CNC1=O)C(=O)N[C@@H](Cc1ccc(O)cc1)C(=O)N[C@@H](CCC(N)=O)C(=O)N[C@@H](CCCCN)C(=O)N1CCC[C@@H]1C(=O)N1CCC[C@H]1C(=O)N[C@@H](CC(=O)O)C(=O)N[C@@H](CCCNC(=N)N)C(=O)N[C@@H](CCCNC(N)=O)C(=O)N2` [Ex. 88] (cyclo(DR[Cit]CRG[dP]RR[2Nal]CYQK[dP]P); disulfide 4-11), the Hemolysis at 100 μM in data set [1] was 0%. Further, the GI50 at 48 h in data set [2] turned out to be 44 µM. In addition, the IC50 in data set [3] was 2.5 nM.
On the same counts, the results for `N=C(N)NCCC[C@@H]1NC(=O)[C@@H]2CSSC[C@H](NC(=O)[C@H](Cc3ccc4ccccc4c3)NC(=O)[C@H](CCCNC(=N)N)NC(=O)[C@H](CCCNC(=N)N)NC(=O)[C@H]3CCCN3C(=O)CNC1=O)C(=O)N[C@@H](Cc1ccc(O)cc1)C(=O)N[C@@H](CCC(N)=O)C(=O)N[C@@H](CCCCN)C(=O)N1CCC[C@@H]1C(=O)N1CCC[C@H]1C(=O)N[C@@H](Cc1ccc(O)cc1)C(=O)N[C@@H](CCCNC(=N)N)C(=O)N[C@@H](CC(=O)O)C(=O)N2` [Ex. 93] (cyclo(YRDCRG[dP]RR[2Nal]CYQK[dP]P); disulfide 4-11) are 0.2%, greater than 100 µM and 4.3 nM.
For `C[C@@H]1NC(=O)[C@H](CCCNC(=N)N)NC(=O)[C@@H]2CSSC[C@H](NC(=O)[C@H](Cc3c[nH]c4ccccc34)NC(=O)[C@H](CCCNC(=N)N)NC(=O)[C@H](CCCNC(=N)N)NC(=O)[C@H]3CCCN3C1=O)C(=O)N[C@@H](Cc1ccc(O)cc1)C(=O)N[C@@H](CCCNC(N)=O)C(=O)N[C@@H](CCCCN)C(=O)N1CCC[C@@H]1C(=O)N1CCC[C@H]1C(=O)N[C@@H](Cc1ccc(O)cc1)C(=O)N[C@@H](CCCNC(=N)N)C(=O)N[C@@H](CCCNC(N)=O)C(=O)N2` [Ex. 143] (cyclo(YR[Cit]CRA[dP]RRWCY[Cit]K[dP]P); disulfide 4-11), halving of growth in data set [2] (GI50 at 48 h) required 46 µM. In data set [3], the IC50 amounted to 0.9 nM.
On the same counts, the results for `C[C@@H](O)[C@@H]1NC(=O)[C@H]2CCCN2C(=O)CNC(=O)[C@H](CCCNC(=N)N)NC(=O)[C@@H]2CSSC[C@H](NC(=O)[C@H](Cc3ccc4ccccc4c3)NC(=O)[C@H](CCCNC(=N)N)NC1=O)C(=O)N[C@@H](Cc1ccc(O)cc1)C(=O)N[C@@H](CCC(N)=O)C(=O)N[C@@H](CCCCN)C(=O)N1CCC[C@@H]1C(=O)N1CCC[C@H]1C(=O)N[C@@H](Cc1ccc(O)cc1)C(=O)N[C@@H](CCCNC(=N)N)C(=O)N[C@@H](CCCNC(N)=O)C(=O)N2` [Ex. 56] (cyclo(YR[Cit]CRG[dP]TR[2Nal]CYQK[dP]P); disulfide 4-11) are 60 µM and 0.74 nM.

These data come from patent publication US8895695B2, “Template-fixed beta-hairpin peptidomimetics with CXCR4 antagonizing activity” (priority 2003, dated 2014).
